Publication PMC4297251 (Investigational new drugs, 2014)

Experiments:
[1] = tested on: patients with refractory solid tumors; assay: Phase I dose escalation of RO4929097 with capecitabine: toxicity / DLT; type: in vivo
clinical = details: human, in vivo; for AUC(0-inf): AUC0→∞
refractory solid tumors = assay: Antitumor activity by RECIST 1.1; type: in vivo, human; details: 30 patients, all dose levels, with capecitabine
multiple animal models = details: oral dosing; cited from earlier work
[2] = n=30, worst grade, at least possibly related, with capecitabine

## CC(C)(C(=O)NCC(F)(F)C(F)(F)F)C(=O)N[C@@H]1C(=O)Nc2ccccc2-c2ccccc21 [RO4929097]
[1]; human, in vivo
  Anemia, Grade 1: 0 n (%)
  Anemia, Grade 2: 2 (7) n (%)
  Anemia, Grade 3: 1 (3) n (%)
  Anemia, Grade 4: 0 n (%)
  Anemia, Overall: 3 (10) n (%)
  Anorexia, Grade 1: 5 (17) n (%)
  Anorexia, Grade 2: 2 (7) n (%)
  Anorexia, Grade 3: 0 n (%)
  Anorexia, Grade 4: 0 n (%)
  Anorexia, Overall: 7 (23) n (%)
  Chills, Grade 1: 3 (10) n (%)
  Chills, Grade 2: 0 n (%)
  Chills, Grade 3: 0 n (%)
  Chills, Grade 4: 0 n (%)
  Chills, Overall: 3 (10) n (%)
  Diarrhea, Grade 1: 9 (30) n (%)
  Diarrhea, Grade 2: 4 (13) n (%)
  Diarrhea, Grade 3: 1 (3) n (%)
  Diarrhea, Grade 4: 0 n (%)
  Diarrhea, Overall: 14 (47) n (%)
  Dry skin, Grade 1: 5 (17) n (%)
  Dry skin, Grade 2: 0 n (%)
  Dry skin, Grade 3: 0 n (%)
  Dry skin, Grade 4: 0 n (%)
  Dry skin, Overall: 5 (17) n (%)
  Fatigue, Grade 1: 6 (20) n (%)
  Fatigue, Grade 2: 8 (27) n (%)
  Fatigue, Grade 3: 2 (7) n (%)
  Fatigue, Grade 4: 0 n (%)
  Fatigue, Overall: 16 (53) n (%)
  Headache, Grade 1: 9 (30) n (%)
  Headache, Grade 2: 0 n (%)
  Headache, Grade 3: 0 n (%)
  Headache, Grade 4: 0 n (%)
  Headache, Overall: 9 (30) n (%)
  Hypokalemia, Grade 1: 1 (3) n (%)
  Hypokalemia, Grade 2: 1 (3) n (%)
  Hypokalemia, Grade 3: 2 (7) n (%)
  Hypokalemia, Grade 4: 0 n (%)
  Hypokalemia, Overall: 4 (13) n (%)
  Hypophosphatemia, Grade 1: 0 n (%)
  Hypophosphatemia, Grade 2: 8 (27) n (%)
  Hypophosphatemia, Grade 3: 6 (20) n (%)
  Hypophosphatemia, Grade 4: 0 n (%)
  Hypophosphatemia, Overall: 14 (47) n (%)
  Nausea, Grade 1: 17 (57) n (%)
  Nausea, Grade 2: 2 (7) n (%)
  Nausea, Grade 3: 2 (7) n (%)
  Nausea, Grade 4: 0 n (%)
  Nausea, Overall: 21 (70) n (%)
  Pain in legs, Grade 1: 4 (13) n (%)
  Pain in legs, Grade 2: 0 n (%)
  Pain in legs, Grade 3: 0 n (%)
  Pain in legs, Grade 4: 0 n (%)
  Pain in legs, Overall: 4 (13) n (%)
  Palmar-plantar erythrodysesthesia syndrome, Grade 1: 3 (10) n (%)
  Palmar-plantar erythrodysesthesia syndrome, Grade 2: 1 (3) n (%)
  Palmar-plantar erythrodysesthesia syndrome, Grade 3: 1 (3) n (%)
  Palmar-plantar erythrodysesthesia syndrome, Grade 4: 0 n (%)
  Palmar-plantar erythrodysesthesia syndrome, Overall: 5 (17) n (%)
  QTc prolongation, Grade 1: 5 (17) n (%)
  QTc prolongation, Grade 2: 1 (3) n (%)
  QTc prolongation, Grade 3: 0 n (%)
  QTc prolongation, Grade 4: 0 n (%)
  QTc prolongation, Overall: 6 (20) n (%)
  Taste alteration, Grade 1: 5 (17) n (%)
  Taste alteration, Grade 2: 0 n (%)
  Taste alteration, Grade 3: 0 n (%)
  Taste alteration, Grade 4: 0 n (%)
  Taste alteration, Overall: 5 (17) n (%)
  Vomiting, Grade 1: 11 (37) n (%)
  Vomiting, Grade 2: 1 (3) n (%)
  Vomiting, Grade 3: 2 (7) n (%)
  Vomiting, Grade 4: 0 n (%)
  Vomiting, Overall: 14 (47) n (%)
  Weight loss, Grade 1: 3 (10) n (%)
  Weight loss, Grade 2: 1 (3) n (%)
  Weight loss, Grade 3: 0 n (%)
  Weight loss, Grade 4: 0 n (%)
  Weight loss, Overall: 4 (13) n (%)
  diarrhea, patients: 47%
  fatigue, patients: 53%
  hypophosphatemia, patients: 47%
  nausea, patients: 70%
  vomiting, patients: 47%
[1]; [2]
  Anemia, Grade 5: 0 n (%)
  Anorexia, Grade 5: 0 n (%)
  Chills, Grade 5: 0 n (%)
  Diarrhea, Grade 5: 0 n (%)
  Dry skin, Grade 5: 0 n (%)
  Fatigue, Grade 5: 0 n (%)
  Headache, Grade 5: 0 n (%)
  Hypokalemia, Grade 5: 0 n (%)
  Hypophosphatemia, Grade 5: 0 n (%)
  Nausea, Grade 5: 0 n (%)
  Pain in legs, Grade 5: 0 n (%)
  Palmar-plantar erythrodysesthesia syndrome, Grade 5: 0 n (%)
  QTc prolongation, Grade 5: 0 n (%)
  Taste alteration, Grade 5: 0 n (%)
  Vomiting, Grade 5: 0 n (%)
  Weight loss, Grade 5: 0 n (%)
clinical; 20 mg
  Cmax: 358.3 ng/mL
  Half Life: 30.7 h
  half-life: 36.2 h
clinical; 20 mg, Cmax
  Cmax: 646 ng/mL
clinical; 30 mg
  AUC0→∞: 16609.4 ng·h/mL
  Cmax: 668.5 ng/mL
  Vd: 88.7 L/h
  AUC(0-inf): 25900 ng·h/mL
clinical; 30 mg, Cmax
  Cmax: 656 ng/mL
clinical; 30 mg, Vd
  Vd: 53 L
clinical; 45 mg
  Half Life: 9.5 h
  Vd: 118.9 L/h
  half-life: 17.8 h
clinical; 45 mg, Vd
  Vd: 63.3 L
clinical; 68 mg
  AUC0→∞: 18050.7 ng·h/mL
  Cmax: 1011.7 ng/mL
  Half Life: 16.0 h
  AUC(0-inf): 34400 ng·h/mL
  half-life: 15.9 h
clinical; 68 mg, Cmax
  Cmax: 1640 ng/mL
clinical; 100 mg
  AUC0→∞: 32748.6 ng·h/mL
  Cl: 3953.9 mL/h
  Cmax: 1473.2 ng/mL
  Half Life: 19.8 h
  AUC(0-inf): 51900 ng·h/mL
  half-life: 13.4 h
clinical; 100 mg, Cl
  clearance: 43.3 mL/min
clinical; 100 mg, Cmax
  Cmax: 2390 ng/mL
clinical; 150 mg
  Vd: 168.2 L/h
clinical; 150 mg, Vd
  Vd: 154 L
Refractory solid tumors
  progressive disease as best response, patients: 60%
Refractory solid tumors; after three or more cycles
  stable disease as best response, patients: 30%
Multiple animal models
  efficacy maintained post-dosing: up to 90 days
